Reference: patent publication US6172110A, “Acylated betulin and dihydrobetulin derivatives, preparation thereof and use thereof” (The University of North Carolina at Chapel Hill, priority 1999, dated 2001)
pEC50: −log10 of the molar value. “Also recorded” adds a separate entry of the source. Where two headings read alike, the source gives them in different places.

Experiments:
[1] = Cytotoxicity: cell counts of mock-infected H9 cells; type: cell-based; conditions: human
Experimental: (§1) The biological evaluation of HIV-1 inhibition was carried out according to established protocols, (Kashiwada, Y., et al., J Med Chem. 39:1016-1017 (1996); Hashimoto, F., et al., Bioorg. & Med Chem. 5:2133-2143 (1997)). The T cell line, H9, was maintained in continuous culture with complete medium (RPMI 1640 with 10% fetal calf serum supplemented with L-glutamine at 5% CO2 and 37° C.). Aliquot of this cell line were only used in experiments when in log-phase growth. Test samples were first dissolved in dimethyl sulfoxide. The following final drug concentrations were routinely used for screening: 100, 20, 4 and 0.8 μg/ml. For active agents, additional dilutions were prepared for subsequent testing so that an accurate EC50 value (defined below) could be achieved. As the test samples were being prepared, an aliquot of the H9 cell line was infected with HIV-1 (IIIB isolate) while another aliquot was mock-infected with complete medium. […] The appropriate amount of virus for a multiplicity of infection (moi) between 0.1 and 0.01 Infectious Units/cell was added to the first aliquot of H9 cells. The other aliquot only received culture medium, and these mock-infected cells were used for toxicity determinations (IC50, defined below). After a 4 h incubation at 37° C. and 5% CO2, both cell populations were washed three times with fresh medium and then added to the appropriate wells of a 24 well-plate containing the various concentrations of the test drug or culture medium (positive infected control/negative drug control). In addition, AZT was also assayed during each experiment as a positive drug control. The plates were incubated at 37° C. and 5% CO2 for 4 days. Cell-free supernatants were collected on Day 4 for use in a p24 antigen ELISA assay. P24 antigen is a core protein of HIV and therefore is an indirect measure of virus present in the supernatants. Toxicity was determined by performing cell counts by a Coulter Counter on the mock-infected H9 cells which had either received culture medium (no toxicity), test sample, or AZT.
Compounds of the present invention were assayed for anti-HIV activity according to the following assay procedures. The T cell line, H9, and the promonocytic cell line, U937, were maintained separately in continuous culture with complete medium (RPMI 1640 with 10% fetal calf serum) at 5% CO2 and 37° C. The cell lines were used in experiments only when in the logarithmic phase of growth, whereas uninfected peripheral blood mononuclear cells (PBMCs) were first stimulated with PHA (1 μg/mL) for three days. All cell targets were incubated with HIV-1 (IIIB isolate, TCID50 10^4 IU/ml, at a multiplicity of infection of […] IU/cell) for one hour at 37° C. and 5% CO2. The cell lines and PBMCs were washed thoroughly to remove unadsorbed virions and resuspended at 4×10^5 cells/ml in complete medium or complete medium with 10% v/v interleukin 2 (IL-2) , respectively. One ml. aliquots were placed into wells of 24-well culture plates containing an equal volume of test compounds (diluted in the appropriate culture medium). The toxicity of each compound was assessed by determining the number of compound-exposed uninfected cells that remained after four days at 37° C. and 5% CO2. A p24 antigen ELISA assay was used to determine the level of virus released in the medium of the HIV-infected cultures. The p24 antigen assay used a HIV-1 anti-p24 specific monoclonal antibody as the capture antibody coated onto 96-well plates. Following a sample incubation period, rabbit serum containing antibodies for HIV-1 p24 was used to tag any p24 captured onto the microtiterwell surface. Peroxidase conjugated goat anti-rabbit serum was then used to tag HIV-1 p24 specific rabbit antibodies that had complexed with captured p24. […] The cutoff for the p24 ELISA assay was 12.5 pg/ml. P24 in the culture medium was quantitated against a standard curve containing known amounts of p24. […]

HIV-1 (IIIB isolate) = test: HIV-1 inhibition (p24 antigen ELISA) in infected H9 lymphocytes; type: cell-based; conditions: for pEC50: Human immunodeficiency virus 1, IIIB, Lymphocyte, 96 h, read-out: Anti-HIV Activity EC50; for Therapeutic Index (TI = IC50/EC50): H9 cells, average of at least two experiments; for anti-HIV activity, result in words / TI, result in words: H-9 lymphocytes; for anti-HIV activity, result in words: EC50 compared with related compounds; for TI, result in words: compared with related compounds
Experimental: as §1, with “Aliquot” for “The biological evaluation of HIV-1 inhibition was carried out according to established protocols, (Kashiwada, Y., et al., J Med Chem. 39:1016-1017 (1996); Hashimoto, F., et al., Bioorg. & Med Chem. 5:2133-2143 (1997)). The T cell line, H9, was maintained in continuous culture with complete medium (RPMI 1640 with 10% fetal calf serum supplemented with L-glutamine at 5% CO2 and 37° C.). Aliquot”, “achieved.” for “achieved. As the test samples were being prepared, an aliquot of the H9 cell line was infected with HIV-1 (IIIB isolate) while another aliquot was mock-infected with complete medium.”
Compounds of the present invention were assayed for anti-HIV activity according to the following assay procedures. […] The cell lines were used in experiments only when in the logarithmic phase of growth, whereas uninfected peripheral blood mononuclear cells (PBMCs) were first stimulated with PHA (1 μg/mL) for three days. […] The cell lines and PBMCs were washed thoroughly to remove unadsorbed virions and resuspended at 4×10^5 cells/ml in complete medium or complete medium with 10% v/v interleukin 2 (IL-2) , respectively. One ml. aliquots were placed into wells of 24-well culture plates containing an equal volume of test compounds (diluted in the appropriate culture medium). The toxicity of each compound was assessed by determining the number of compound-exposed uninfected cells that remained after four days at 37° C. and 5% CO2. A p24 antigen ELISA assay was used to determine the level of virus released in the medium of the HIV-infected cultures. The p24 antigen assay used a HIV-1 anti-p24 specific monoclonal antibody as the capture antibody coated onto 96-well plates. […] P24 in the culture medium was quantitated against a standard curve containing known amounts of p24. The effective (EC50) and inhibitory (IC50) concentrations for anti-HIV activity and cytotoxicity, respectively, were determined.

[2] = toxic to 50% of mock-infected H9 cells, 4 days, average of at least two experiments, read-out: Cytotoxicity IC50

SMILES | CC50 at 96 h [1, 2] [µM] | pEC50 (HIV-1 (IIIB isolate)) | CC50 at 96 h ([1]; h9 cells) [µM] | Therapeutic Index (TI = IC50/EC50) (HIV-1 (IIIB isolate)) | anti-HIV activity, result in words (HIV-1 (IIIB isolate)) | TI, result in words (HIV-1 (IIIB isolate)) | fold more potent than compound 2 (HIV-1 (IIIB isolate); compared with compound 2) | fold drop in TI on saturation of C20-C29 double bond (HIV-1 (IIIB isolate); compared with compound 4) [fold] | fold drop in activity on saturation of C20-C29 double bond (HIV-1 (IIIB isolate); compared with compound 4) [fold] | fold more potent than compound 3 (HIV-1 (IIIB isolate); compared with compound 3 (betulin)) [fold]
Cc1cn([C@H]2C[C@H](N=[N+]=[N-])[C@@H](CO)O2)c(=O)[nH]c1=O [AZT, reference compound] | 500 | – | – | – | – | – | – | – | – | –
C=C(C)[C@@H]1CC[C@]2(C(=O)O)CC[C@]3(C)[C@H](CC[C@@H]4[C@@]5(C)CC[C@H](OC(=O)CC(C)(C)CC(=O)O)C(C)(C)[C@@H]5CC[C@]43C)[C@@H]12 [Compound 2, reference compound] | – | 8.64 | 4.5 | – | – | – | – | – | – | –
C=C(C)[C@@H]1CC[C@]2(CO)CC[C@]3(C)[C@H](CC[C@@H]4[C@@]5(C)CC[C@H](O)C(C)(C)[C@@H]5CC[C@]43C)[C@@H]12 [Compound 3, betulin] | 43.7 | 4.64 | – | 1.9 | less potent than betulinic acid (1) | – | – | – | – | –
C=C(C)[C@@H]1CC[C@]2(COC(=O)CC(C)(C)CC(=O)O)CC[C@]3(C)[C@H](CC[C@@H]4[C@@]5(C)CC[C@H](OC(=O)CC(C)(C)CC(=O)O)C(C)(C)[C@@H]5CC[C@]43C)[C@@H]12 [Compound 4, 3,28-Di-O-(3',3'-dimethylglutaryl)-betulin] | – | 9.18 | 14.2 | 21,515 | significantly enhanced activity; also recorded: remarkable anti-HIV activity even greater than that of the betulinic acid derivative 2 | remarkably high therapeutic index (TI); also recorded: higher TI than compound 2 | about 3 fold | – | – | –
C=C(C)[C@@H]1CC[C@]2(COC(=O)CC(C)(CC)CC(=O)O)CC[C@]3(C)[C@H](CC[C@@H]4[C@@]5(C)CC[C@H](OC(=O)CC(C)(CC)CC(=O)O)C(C)(C)[C@@H]5CC[C@]43C)[C@@H]12 (stereo partly drawn) [Compound 5, 3,28-Di-O-(3',3'-methylethylglutaryl)-betulin] | – | 8.28 | 18.4 | 3,476 | in the nanomolar range; also recorded: less active compared with compound 4 | – | – | – | – | –
C=C(C)[C@@H]1CC[C@]2(COC(=O)CC3(CC(=O)O)CCCC3)CC[C@]3(C)[C@H](CC[C@@H]4[C@@]5(C)CC[C@H](OC(=O)CC6(CC(=O)O)CCCC6)C(C)(C)[C@@H]5CC[C@]43C)[C@@H]12 [Compound 6, 3,28-Di-O-(3',3'-tetramethyleneglutaryl)-betulin] | – | 7.11 | 20.5 | 267 | in the nanomolar range; also recorded: less active compared with compound 4; also recorded: least activity | lowest TI values | – | – | – | –
CC(C)[C@@H]1CC[C@]2(COC(=O)CC(C)(C)CC(=O)O)CC[C@]3(C)[C@H](CC[C@@H]4[C@@]5(C)CC[C@H](OC(=O)CC(C)(C)CC(=O)O)C(C)(C)[C@@H]5CC[C@]43C)[C@@H]12 [Compound 8, 3,28-Di-O-(3',3'-dimethyglutaryl)-dihydrobetulin] | – | 8.33 | 10.6 | 2,253 | – | – | – | ~9 | ~7 | –
CCC(C)(CC(=O)O)CC(=O)OC[C@]12CC[C@@H](C(C)C)[C@@H]1[C@H]1CC[C@@H]3[C@@]4(C)CC[C@H](OC(=O)CC(C)(CC)CC(=O)O)C(C)(C)[C@@H]4CC[C@@]3(C)[C@]1(C)CC2 (stereo partly drawn) [Compound 9, 3,28-Di-O-(3',3'-methylethylglutaryl)-dihydrobetulin] | – | 7.12 | 18.7 | 248 | less inhibition than the unsaturated 5 and 6 | – | – | – | – | –
CC(C)[C@@H]1CC[C@]2(COC(=O)CC3(CC(=O)O)CCCC3)CC[C@]3(C)[C@H](CC[C@@H]4[C@@]5(C)CC[C@H](OC(=O)CC6(CC(=O)O)CCCC6)C(C)(C)[C@@H]5CC[C@]43C)[C@@H]12 [Compound 10, 3,28-Di-O-(3',3'-tetramethyleneglutaryl)-dihydrobetulin] | – | 6.24 | 21.6 | 37 | less inhibition than the unsaturated 5 and 6; also recorded: least activity | lowest TI values | – | – | – | –
C=C(C)[C@@H]1CC[C@]2(COC(=O)CC(C)(C)CC(=O)O)CC[C@]3(C)[C@H](CC[C@@H]4[C@@]5(C)CC[C@H](O)C(C)(C)[C@@H]5CC[C@]43C)[C@@H]12 [Compound 11, 28-O-(3',3'-Dimethylglutaryl)-betulin] | – | 5.44 | 28.2 | 7.8 | much less potent than 4 | – | – | – | – | 6
C=C(C)[C@@H]1CC[C@]2(COC(=O)CC(C)(C)CC(=O)O)CC[C@]3(C)[C@H](CC[C@@H]4[C@@]5(C)CCC(=O)C(C)(C)[C@@H]5CC[C@]43C)[C@@H]12 [Compound 12, 3-Deoxy-3-oxo-28-O-(3',3'-dimethylglutaryl)-betulin] | – | 5.00 | 29.2 | 2.9 | decreased activity further | – | – | – | – | –
